Experimental data reported in patent publication US20250388574A1, “HETEROCYCLIC COMPOUNDS AS TRIGGERING RECEPTOR EXPRESSED ON MYELOID CELLS 2 AGONISTS AND METHODS OF USE” (AMGEN INC., priority 2020, published 2025).

Molecular target: hTREM2 (Homo sapiens, UniProt Q9NZC2)
Test: Phospho-Syk AlphaScreen/AlphaLISA assay in TREM2 and DAP12 overexpressing HEK293 cells (Example A1)
Format: cell-based
Parameters: expressed in transfected cells
Conditions: HEK293 cells; for EC50: read-out: hTREM2 EC50
In short: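 Single-cell-cloned HEK293 stably overexpressing TREM2 and DAP12, plated 20,000 cells/well for 20 h, then exposed to compounds (1% DMSO) 45 min at room temperature. Lysates probed for phospho-Syk by AlphaLISA sandwich (anti-pSyk, biotinylated anti-Syk); signal normalized to percent of control (100 nM anti-TREM2 antibody vs isotype) and fitted by 4-parameter logistic.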

Chain of hTREM2 (Q9NZC2 19-230): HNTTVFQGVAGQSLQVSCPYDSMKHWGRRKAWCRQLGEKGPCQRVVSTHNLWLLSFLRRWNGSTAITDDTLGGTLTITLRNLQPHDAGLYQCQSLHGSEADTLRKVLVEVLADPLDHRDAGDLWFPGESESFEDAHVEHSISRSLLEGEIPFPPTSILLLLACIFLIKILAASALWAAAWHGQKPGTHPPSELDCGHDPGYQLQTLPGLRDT
Chain of hTREM2 (O43914 22-113 partner): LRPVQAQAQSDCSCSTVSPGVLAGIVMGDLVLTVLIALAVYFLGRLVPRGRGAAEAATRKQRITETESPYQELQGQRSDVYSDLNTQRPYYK

| Compound | Emax | EC50 [nM] |
| --- | --- | --- |
| Cc1nc2cc(N3CCO[C@@H](c4cnn(C)c4)C3)nc(-c3ccc(Cl)cc3F)c2c(=O)n1C1CCCCC1 [Example 18, 5-(4-chloro-2-fluorophenyl)-3-cyclohexyl-2-methyl-7-((2S)-2-(1-methyl-1H-pyrazol-4-yl)-4-morpholinyl)pyrido[4,3-d]pyrimidin-4(3H)-one] | ++ (Emax>100 and ≤200) | 500 to 3000 |
| Cc1nc2cc(N3CCO[C@@H](c4cnn(C)c4)C3)nc(-c3ccc(Cl)cc3F)c2c(=O)n1CC(F)(F)F [Example 19, 5-(4-chloro-2-fluorophenyl)-2-methyl-7-((2S)-2-(1-methyl-1H-pyrazol-4-yl)-4-morpholinyl)-3-(2,2,2-trifluoroethyl)pyrido[4,3-d]pyrimidin-4(3H)-one] | ++++ (Emax>300) | < 50 |
| Cc1nc2cc(N3CCO[C@@H](c4cnn(C)c4)C3)nc(-c3ccc(Cl)cc3F)c2c(=O)n1C1CC1 [Example 20, 5-(4-chloro-2-fluorophenyl)-3-cyclopropyl-2-methyl-7-((2S)-2-(1-methyl-1H-pyrazol-4-yl)-4-morpholinyl)pyrido[4,3-d]pyrimidin-4(3H)-one] | ++++ (Emax>300) | 50 to 500 |
| CCCn1c(C)nc2cc(N3CCOC(c4cnn(C)c4)C3)nc(-c3ncc(Cl)cc3F)c2c1=O (stereo not shown) [Example 21, 5-(5-chloro-3-fluoro-2-pyridinyl)-2-methyl-7-(2-(1-methyl-1H-pyrazol-4-yl)-4-morpholinyl)-3-propylpyrido-[4,3-d]pyrimidin-4(3H)-one] | ++++ (Emax>300) | 50 to 500 |
| Cc1nc2cc(N3CCO[C@@H](c4cn[nH]c4)C3)nc(-c3ccc(Cl)cc3F)c2c(=O)n1C [Example 22, 5-(4-chloro-2-fluorophenyl)-2,3-dimethyl-7-((2S)-2-(1H-pyrazol-4-yl)-4-morpholinyl)pyrido[4,3-d]pyrimidin-4(3H)-one] | ++++ (Emax>300) | < 50 |
| Cc1nc2cc(N3CCOC(C)(c4cnn(C)c4)C3)nc(-c3ccc(Cl)cc3F)c2c(=O)n1C (stereo not shown) [Example 31, 5-(4-chloro-2-fluorophenyl)-2,3-dimethyl-7-(2-methyl-2-(1-methyl-1H-pyrazol-4-yl)-4-morpholinyl)pyrido[4,3-d]pyrimidin-4(3H)-one] | ++++ (Emax>300) | 3000 to 100000 |
| Cc1nc2cc(N3CCOC(C4CCC4)C3)nc(-c3ccc(Cl)cc3F)c2c(=O)n1C (stereo not shown) [Example 33, 5-(4-chloro-2-fluorophenyl)-7-(2-cyclobutyl-4-morpholinyl)-2,3-dimethylpyrido[4,3-d]pyrimidin-4(3H)-one] | ++++ (Emax>300) | 500 to 3000 |
| Cc1nc2cc(N3CCOC(c4ccnnc4)C3)nc(-c3ccc(Cl)cc3F)c2c(=O)n1C (stereo not shown) [Example 50, 5-(4-chloro-2-fluorophenyl)-2,3-dimethyl-7-(2-(4-pyridazinyl)-4-morpholinyl)pyrido[4,3-d]pyrimidin-4(3H)-one] | ++++ (Emax>300) | 50 to 500 |
| Cc1nc2cc(N3CCOC(c4cncnc4)C3)nc(-c3ccc(Cl)cc3F)c2c(=O)n1C (stereo not shown) [Example 51, 5-(4-chloro-2-fluorophenyl)-2,3-dimethyl-7-(2-(5-pyrimidinyl)-4-morpholinyl)pyrido[4,3-d]pyrimidin-4(3H)-one] | +++ (Emax>200 and ≤300) | 50 to 500 |
| Cc1nc2cc(N3CCOC(c4ccnn4C)C3)nc(-c3ccc(Cl)cc3F)c2c(=O)n1C (stereo not shown) [Example 52, 5-(4-chloro-2-fluorophenyl)-2,3-dimethyl-7-(2-(1-methyl-1H-pyrazol-5-yl)-4-morpholinyl)pyrido[4,3-d]pyrimidin-4(3H)-one] | ++++ (Emax>300) | 500 to 3000 |
| Cc1nc2cc(N3CCOC(CC(F)(F)F)C3)nc(-c3ccc(Cl)cc3F)c2c(=O)n1C (stereo not shown) [Example 53, 5-(4-chloro-2-fluorophenyl)-2,3-dimethyl-7-(2-(2,2,2-trifluoroethyl)-4-morpholinyl)pyrido[4,3-d]pyrimidin-4(3H)-one] | ++++ (Emax>300) | 500 to 3000 |
| Cc1ccc(C2CN(c3cc4nc(C)n(C)c(=O)c4c(-c4ccc(Cl)cc4F)n3)CCO2)cn1 (stereo not shown) [Example 60, 5-(4-chloro-2-fluorophenyl)-2,3-dimethyl-7-(2-(6-methyl-3-pyridinyl)-4-morpholinyl)pyrido[4,3-d]pyrimidin-4(3H)-one] | ++++ (Emax>300) | 50 to 500 |
| Cc1cc([C@H]2CN(c3cc4nc(C)n(C)c(=O)c4c(-c4ccc(Cl)cc4F)n3)CCO2)ccn1 [Example 61, 5-(4-chloro-2-fluorophenyl)-2,3-dimethyl-7-((2S)-2-(2-methyl-4-pyridinyl)-4-morpholinyl)pyrido[4,3-d]pyrimidin-4(3H)-one] | +++ (Emax>200 and ≤300) | < 50 |
| Cc1cc([C@@H]2CN(c3cc4nc(C)n(C)c(=O)c4c(-c4ccc(Cl)cc4F)n3)CCO2)ccn1 [Example 62, 5-(4-chloro-2-fluorophenyl)-2,3-dimethyl-7-((2R)-2-(2-methyl-4-pyridinyl)-4-morpholinyl)pyrido[4,3-d]pyrimidin-4(3H)-one] | +++ (Emax>200 and ≤300) | 50 to 500 |

Results, then the compound that gave them:

| Emax | EC50 [nM] | Compound |
| --- | --- | --- |
| ++++ (Emax>300) | 500 to 3000 | Cc1nccc(C2CN(c3cc4nc(C)n(C)c(=O)c4c(-c4ccc(Cl)cc4F)n3)CCO2)n1 (stereo not shown) [Example 63, 5-(4-chloro-2-fluorophenyl)-2,3-dimethyl-7-(2-(2-methyl-4-pyrimidinyl)-4-morpholinyl)pyrido[4,3-d]pyrimidin-4(3H)-one] |
| +++ (Emax>200 and ≤300) | 50 to 500 | Cc1nn(C)cc1C1CN(c2cc3nc(C)n(C)c(=O)c3c(-c3ccc(Cl)cc3F)n2)CCO1 (stereo not shown) [Example 68, 5-(4-chloro-2-fluorophenyl)-7-(2-(1,3-dimethyl-1H-pyrazol-4-yl)-4-morpholinyl)-2,3-dimethylpyrido[4,3-d]pyrimidin-4(3H)-one] |
| ++++ (Emax>300) | 50 to 500 | Cc1nc2cc(N3CCOC(c4cncc(F)c4)C3)nc(-c3ccc(Cl)cc3F)c2c(=O)n1C (stereo not shown) [Example 69, 5-(4-chloro-2-fluorophenyl)-7-(2-(5-fluoro-3-pyridinyl)-4-morpholinyl)-2,3-dimethylpyrido[4,3-d]pyrimidin-4(3H)-one] |
| ++++ (Emax>300) | 50 to 500 | CCc1nnc(C2CN(c3cc4nc(C)n(C)c(=O)c4c(-c4ccc(Cl)cc4F)n3)CCO2)o1 (stereo not shown) [Example 70, 5-(4-chloro-2-fluorophenyl)-7-(2-(5-ethyl-1,3,4-oxadiazol-2-yl)-4-morpholinyl)-2,3-dimethylpyrido[4,3-d]pyrimidin-4(3H)-one] |
| ++++ (Emax>300) | 50 to 500 | Cc1csc(C2CN(c3cc4nc(C)n(C)c(=O)c4c(-c4ccc(Cl)cc4F)n3)CCO2)n1 (stereo not shown) [Example 75, 5-(4-chloro-2-fluorophenyl)-2,3-dimethyl-7-(2-(4-methyl-1,3-thiazol-2-yl)-4-morpholinyl)pyrido[4,3-d]pyrimidin-4(3H)-one] |
| ++++ (Emax>300) | 50 to 500 | Cc1nc2cc(N3CCOC(c4ccc(C#N)cc4)C3)nc(-c3ccc(Cl)cc3F)c2c(=O)n1C (stereo not shown) [Example 90, 4-(4-(5-(4-chloro-2-fluorophenyl)-2,3-dimethyl-4-oxo-3,4-dihydropyrido [4,3-d]pyrimidin-7-yl)-2-morpholinyl)benzonitrile] |
